Measurements from patent US20200298233A1, “MICROFLUIDIC PAPER CHIP FOR DETECTING MICRO-ORGANISM, METHOD FOR PREPARING THE SAME AND METHOD FOR DETECTING MICRO-ORGANISM USING THE SAME” (BIOMAX CO., LTD., priority 2017, published 2020).
Where “and” joins values, the source holds several entries; their conditions need not be identical. Identical values can stand only once.

Legend:
Escherichia coli O157 = details: chromogenic reagent terminal concentration 10 mM, 30 minutes at 37° C.
Staphylococcus aureus [1] = assay: Coloring reaction test of chromogenic reagents, 96 well plate; format: biochemical; details: chromogenic reagent terminal concentration 10 mM, 30 minutes at 37° C.
Vibrio vulnificus [2] = assay: as above; format: biochemical; details: chromogenic reagent terminal concentration 10 mM, 30 minutes at 37° C.
Listeria monocytogenes [3] = assay: Bacterial lysis efficacy by measuring optical density (OD); format: cell-based
Staphylococcus aureus [4] = assay: as above; format: cell-based
Esherichia coli O157 = assay: as above; format: cell-based, Escherichia coli O157
[5] = tested on: 5 food risk microorganisms; assay: Bacterial lysis efficacy by optical density, overall statements; format: cell-based; details: detergents at 1%, tables 3 and 4
Vibrio vulnificus [6] = assay: Bacterial lysis efficacy by measuring optical density (OD)
Salmonella spp. = assay: as above
Escherichia coli = details: chromogenic reagent terminal concentration 10 mM, 30 minutes at 37° C.
Listeria monocytogenes [7] = assay: Coloring reaction test of chromogenic reagents, 96 well plate; format: biochemical; details: chromogenic reagent terminal concentration 10 mM, 30 minutes at 37° C.

“5-Bromo-6-chloro-3-indoxyl-beta-D-galactopyranoside [Magenta-beta-galactopyranoside]” was tested, and the coloring reaction (Escherichia coli O157) was “unique coloring reaction”, the coloring reaction (Staphylococcus aureus [1]) was “unique coloring reaction” and the coloring reaction (Vibrio vulnificus [2]) was “unique coloring reaction”.

`CCCCCCCCCCCCCC[N+](C)(C)CCCS(=O)(=O)[O-]` [SB3-14] was tested, and the Optical density (Listeria monocytogenes [3]; Table 7, additives to 1% SB3-14, initial O.D = 1.2010) was 0.6579 and 0.6484 and 0.6514, the Optical density (Listeria monocytogenes [3]; Table 8, C7BZO concentrations added to 1% SB3-14, initial O.D = 1.1086) was 0.7673 and 0.7609 and 0.7595 and the Optical density (Listeria monocytogenes [3]; detergent 0.1%, initial O.D = 0.8336) was 0.9540 and 0.9653 and 0.9757. The Optical density (Listeria monocytogenes [3]; detergent 0.5%, initial O.D = 0.8336) was 0.8154 and 0.8244 and 0.8145, the Optical density (Listeria monocytogenes [3]; detergent 1%, initial O.D = 0.8336) was 0.5993 and 0.5050 and 0.5950 and the Optical density (Listeria monocytogenes [3]; detergent 2%, initial O.D = 0.8336) was 0.9852 and 0.9975 and 0.9807. The Optical density (Listeria monocytogenes [3]; detergent 3%, initial O.D = 0.8336) was 0.7006 and 0.6813 and 0.6884, the Optical density (Listeria monocytogenes [3]; detergent 5%, initial O.D = 0.8336) was 0.7960 and 0.7828 and 0.7815 and the Optical density (Staphylococcus aureus [4]; Table 7, additives to 1% SB3-14, initial O.D = 1.2274) was 0.8154 and 0.8152 and 0.8153. For the same compound, the Optical density (Staphylococcus aureus [4]; Table 8, C7BZO concentrations added to 1% SB3-14, initial O.D = 1.1374) was 0.8664 and 0.8654 and 0.8652, the Optical density (Staphylococcus aureus [4]; detergent 0.1%, initial O.D = 1.1877) was 0.9052 and 0.9069 and 0.9087 and the Optical density (Staphylococcus aureus [4]; detergent 0.5%, initial O.D = 1.1877) was 1.1084 and 1.1070 and 1.1092. For the same compound, the Optical density (Staphylococcus aureus [4]; detergent 1%, initial O.D = 1.1877) was 0.5341 and 0.5322, the Optical density (Staphylococcus aureus [4]; detergent 2%, initial O.D = 1.1877) was 0.9473 and 0.9470 and 0.9461 and the Optical density (Staphylococcus aureus [4]; detergent 3%, initial O.D = 1.1877) was 1.0432 and 1.0429 and 1.0502. The Optical density (Staphylococcus aureus [4]; detergent 5%, initial O.D = 1.1877) was 0.8999 and 0.8987 and 0.8865, the Optical density (Esherichia coli O157; Table 7, additives to 1% SB3-14, initial O.D = 1.0911) was 0.1112 and 0.1137 and 0.1126 and the Optical density (Esherichia coli O157; Table 8, C7BZO concentrations added to 1% SB3-14, initial O.D = 1.0829) was 0.1264 and 0.1254 and 0.1241. For the same compound, the Optical density (Esherichia coli O157; detergent 0.1%, initial O.D = 0.8139) was 0.4641 and 0.4483 and 0.4351, the Optical density (Esherichia coli O157; detergent 0.5%, initial O.D = 0.8139) was 0.2262 and 0.2254 and 0.2230 and the Optical density (Esherichia coli O157; detergent 1%, initial O.D = 0.8139) was 0.0270 and 0.0238 and 0.0244. The Optical density (Esherichia coli O157; detergent 2%, initial O.D = 0.8139) was 0.4447 and 0.4452 and 0.4459, the Optical density (Esherichia coli O157; detergent 3%, initial O.D = 0.8139) was 0.6228 and 0.6275 and 0.6225 and the Optical density (Esherichia coli O157; detergent 5%, initial O.D = 0.8139) was 0.6731 and 0.6746 and 0.6733. The bacterial lysis efficacy [5] was “best bacterial lysis efficacy”, the Optical density (Vibrio vulnificus [6]; Table 7, additives to 1% SB3-14, initial O.D = 0.5670) was 0.0800 and 0.0798 and 0.0787 and the Optical density (Vibrio vulnificus [6]; Table 8, C7BZO concentrations added to 1% SB3-14, initial O.D = 1.0272) was 0.2733 and 0.2706 and 0.2737. For the same compound, the Optical density (Vibrio vulnificus [6]; detergent 0.1%, initial O.D = 0.6143, listed as SB-14) was 0.1924 and 0.1953 and 0.1984, the Optical density (Vibrio vulnificus [6]; detergent 0.5%, initial O.D = 0.6143, listed as SB-14) was 0.0679 and 0.0739 and 0.0695 and the Optical density (Vibrio vulnificus [6]; detergent 1%, initial O.D = 0.6143, listed as SB-14) was 0.0601 and 0.0595 and 0.0588. The Optical density (Vibrio vulnificus [6]; detergent 2%, initial O.D = 0.6143, listed as SB-14) was 0.0445 and 0.0393 and 0.0447, the Optical density (Vibrio vulnificus [6]; detergent 3%, initial O.D = 0.6143, listed as SB-14) was 0.0453 and 0.0547 and 0.0528 and the Optical density (Vibrio vulnificus [6]; detergent 5%, initial O.D = 0.6143, listed as SB-14) was 0.0310 and 0.0329 and 0.0320. For the same compound, the Optical density (Salmonella spp.; Table 7, additives to 1% SB3-14, initial O.D = 1.0894) was 0.3597 and 0.3519 and 0.3447, the Optical density (Salmonella spp.; Table 8, C7BZO concentrations added to 1% SB3-14, initial O.D = 1.3421) was 0.3640 and 0.3631 and 0.3627 and the Optical density (Salmonella spp.; detergent 0.1%, initial O.D = 1.4448) was 0.5393 and 0.5423 and 0.5520. For the same compound, the Optical density (Salmonella spp.; detergent 0.5%, initial O.D = 1.4448) was 0.5807 and 0.5788 and 0.5796, the Optical density (Salmonella spp.; detergent 1%, initial O.D = 1.4448) was 0.4105 and 0.4095 and the Optical density (Salmonella spp.; detergent 2%, initial O.D = 1.4448) was 0.5727 and 0.5754 and 0.5776. The Optical density (Salmonella spp.; detergent 3%, initial O.D = 1.4448) was 0.5196 and 0.5221 and the Optical density (Salmonella spp.; detergent 5%, initial O.D = 1.4448) was 0.4419 and 0.4454 and 0.4443.

In the case of `O.O.O.O=C([O-])[C@H]1O[C@@H](Oc2c[nH]c3ccc(Br)c(Cl)c23)[C@H](O)[C@@H](O)[C@@H]1O.[Na+]` [X-beta-glucuronide, 5-Bromo-4-chloro-3-indoxyl-beta-D-glucuronic acid Sodium salt trihydrate], the coloring reaction (Escherichia coli) is reported as “unique coloring reaction”.

In the case of “Aldol ® 518 myo-inositol-1-phosphate [Aldol-myo-inositol-1-phosphate]”, the coloring reaction (Listeria monocytogenes [7]) is reported as “unique coloring reaction”.
